Experimental data published in PubChem BioAssay AID1963850 (Molecular Pharmacology Branch, DTP, NCI, 2024).

Test system: 192522-019-R-J2-PDC complex tumor spheroid viability
Test: Anticancer human tumor 192522-019-R-J2-PDC patient-derived colon adenocarcinoma cell line growth inhibition [POLQ]
Details: for IC50: curve of first compound; for viability, T/C: stronger effect = lower value
Outline: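 Complex spheroid viability model combining PDC tumour cells with endothelial (HUVEC) and MSC stromal cells. Novobiocin, ART-558 or RP6685 were tested singly and in combination with standard and investigational anticancer drugs. Each was titrated in half-log steps from near clinical Cmax, or from 10 microM where Cmax was unknown.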

[1] = second compound 0.0316 µM, first compound 0.00316 µM
[2] = second compound 0.0316 µM, first compound 0.01 µM
[3] = second compound 0.0316 µM, first compound 0.0316 µM
[4] = second compound 0.0316 µM, first compound 0.1 µM
[5] = second compound 0.1 µM, first compound 0.00316 µM
[6] = second compound 0.1 µM, first compound 0.01 µM
[7] = second compound 0.1 µM, first compound 0.0316 µM
[8] = second compound 0.1 µM, first compound 0.1 µM
[9] = second compound 0.316 µM, first compound 0.00316 µM
[10] = second compound 0.316 µM, first compound 0.01 µM
[11] = second compound 0.316 µM, first compound 0.0316 µM
[12] = second compound 0.316 µM, first compound 0.1 µM
[13] = second compound 1 µM, first compound 0.00316 µM
[14] = second compound 1 µM, first compound 0.01 µM
[15] = second compound 1 µM, first compound 0.0316 µM
[16] = second compound 1 µM, first compound 0.1 µM
[17] = second compound 3.16 µM, first compound 0.00316 µM
[18] = second compound 3.16 µM, first compound 0.01 µM
[19] = second compound 3.16 µM, first compound 0.0316 µM
[20] = second compound 3.16 µM, first compound 0.1 µM
[21] = second compound 10 µM, first compound 0.00316 µM
[22] = second compound 10 µM, first compound 0.01 µM
[23] = second compound 10 µM, first compound 0.0316 µM
[24] = second compound 10 µM, first compound 0.1 µM
[25] = second compound 0.0316 µM, first compound 0.316 µM
[26] = second compound 0.0316 µM, first compound 1 µM
[27] = second compound 0.1 µM, first compound 0.316 µM
[28] = second compound 0.1 µM, first compound 1 µM
[29] = second compound 0.316 µM, first compound 0.316 µM
[30] = second compound 0.316 µM, first compound 1 µM
[31] = second compound 1 µM, first compound 0.316 µM
[32] = second compound 1 µM, first compound 1 µM
[33] = second compound 3.16 µM, first compound 0.316 µM
[34] = second compound 3.16 µM, first compound 1 µM
[35] = second compound 10 µM, first compound 0.316 µM
[36] = second compound 10 µM, first compound 1 µM
[37] = second compound 0.0316 µM, first compound 3.16 µM
[38] = second compound 0.0316 µM, first compound 10 µM
[39] = second compound 0.1 µM, first compound 3.16 µM
[40] = second compound 0.1 µM, first compound 10 µM
[41] = second compound 0.316 µM, first compound 3.16 µM
[42] = second compound 0.316 µM, first compound 10 µM
[43] = second compound 1 µM, first compound 3.16 µM
[44] = second compound 1 µM, first compound 10 µM
[45] = second compound 3.16 µM, first compound 3.16 µM
[46] = second compound 3.16 µM, first compound 10 µM
[47] = second compound 10 µM, first compound 3.16 µM
[48] = second compound 10 µM, first compound 10 µM
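Also: spheroids exposed to drugs for seven days before reading.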
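For viability, T/C in this document: 100% = DMSO vehicle control viability in luminescence.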

CC[C@@]1(O)C(=O)OCc2c1cc1n(c2=O)Cc2cc3c(CN(C)C)c(O)ccc3nc2-1 + Cc1cccc(N(C)C(=O)C2C(O)CCN2c2nc(C)cc(C(F)(F)F)c2C#N)c1
IC50 (second compound 0.0316 µM): > 100 nM | IC50 (second compound 0.1 µM): > 100 nM | IC50 (second compound 0.316 µM): > 100 nM | IC50 (second compound 1 µM): > 100 nM | IC50 (second compound 3.16 µM): > 100 nM | IC50 (second compound 10 µM): > 100 nM | viability, T/C (second compound 0.0316 µM, first compound 0.000316 µM): 116% | viability, T/C (second compound 0.0316 µM, first compound 0.001 µM): 93.7% | viability, T/C [1]: 103% | viability, T/C [2]: 99.2% | viability, T/C [3]: 98.7% | viability, T/C [4]: 62.4% | viability, T/C (second compound 0.1 µM, first compound 0.000316 µM): 106% | viability, T/C (second compound 0.1 µM, first compound 0.001 µM): 98.4% | viability, T/C [5]: 102% | viability, T/C [6]: 94.5% | viability, T/C [7]: 88% | viability, T/C [8]: 64.5% | viability, T/C (second compound 0.316 µM, first compound 0.000316 µM): 102% | viability, T/C (second compound 0.316 µM, first compound 0.001 µM): 106% | viability, T/C [9]: 104% | viability, T/C [10]: 102% | viability, T/C [11]: 93.8% | viability, T/C [12]: 70% | viability, T/C (second compound 1 µM, first compound 0.000316 µM): 106% | viability, T/C (second compound 1 µM, first compound 0.001 µM): 106% | viability, T/C [13]: 111% | viability, T/C [14]: 102% | viability, T/C [15]: 96.2% | viability, T/C [16]: 75.2% | viability, T/C (second compound 3.16 µM, first compound 0.000316 µM): 99.2% | viability, T/C (second compound 3.16 µM, first compound 0.001 µM): 114% | viability, T/C [17]: 115% | viability, T/C [18]: 98.4% | viability, T/C [19]: 102% | viability, T/C [20]: 79.5% | viability, T/C (second compound 10 µM, first compound 0.000316 µM): 110% | viability, T/C (second compound 10 µM, first compound 0.001 µM): 107% | viability, T/C [21]: 120% | viability, T/C [22]: 102% | viability, T/C [23]: 95.3% | viability, T/C [24]: 75%

CCc1c2c(nc3ccc(O)cc13)-c1cc3c(c(=O)n1C2)COC(=O)[C@]3(O)CC + Cc1cccc(N(C)C(=O)C2C(O)CCN2c2nc(C)cc(C(F)(F)F)c2C#N)c1
IC50 (second compound 0.0316 µM): 131 nM | IC50 (second compound 0.1 µM): 136 nM | IC50 (second compound 0.316 µM): 158 nM | IC50 (second compound 1 µM): 229 nM | IC50 (second compound 3.16 µM): 234 nM | IC50 (second compound 10 µM): 112 nM | viability, T/C [1]: 95.4% | viability, T/C [2]: 63.6% | viability, T/C [3]: 72.2% | viability, T/C [4]: 53.6% | viability, T/C [25]: 40.3% | viability, T/C [26]: 31.1% | viability, T/C [5]: 91.5% | viability, T/C [6]: 66.2% | viability, T/C [7]: 75.8% | viability, T/C [8]: 52.3% | viability, T/C [27]: 36.7% | viability, T/C [28]: 33.5% | viability, T/C [9]: 104% | viability, T/C [10]: 72.8% | viability, T/C [11]: 70.5% | viability, T/C [12]: 60.7% | viability, T/C [29]: 38.8% | viability, T/C [30]: 33.9% | viability, T/C [13]: 95.1% | viability, T/C [14]: 78.1% | viability, T/C [15]: 71.9% | viability, T/C [16]: 61% | viability, T/C [31]: 44.5% | viability, T/C [32]: 35% | viability, T/C [17]: 101% | viability, T/C [18]: 82.6% | viability, T/C [19]: 79.1% | viability, T/C [20]: 57.3% | viability, T/C [33]: 45.8% | viability, T/C [34]: 36.4% | viability, T/C [21]: 97.6% | viability, T/C [22]: 69.4% | viability, T/C [23]: 68.8% | viability, T/C [24]: 49.4% | viability, T/C [35]: 42.6% | viability, T/C [36]: 36.5%

Nc1ccn(C2OC(CO)C(O)C2(F)F)c(=O)n1 (stereo not drawn) + Cc1cccc(N(C)C(=O)C2C(O)CCN2c2nc(C)cc(C(F)(F)F)c2C#N)c1
IC50 (second compound 0.0316 µM): > 10000 nM | IC50 (second compound 0.1 µM): > 10000 nM | IC50 (second compound 0.316 µM): > 10000 nM | IC50 (second compound 1 µM): > 10000 nM | IC50 (second compound 3.16 µM): > 10000 nM | IC50 (second compound 10 µM): > 10000 nM | viability, T/C [3]: 95.9% | viability, T/C [4]: 81.6% | viability, T/C [25]: 81.8% | viability, T/C [26]: 76.2% | viability, T/C [37]: 70.3% | viability, T/C [38]: 57.2% | viability, T/C [7]: 95.9% | viability, T/C [8]: 95.7% | viability, T/C [27]: 80.6% | viability, T/C [28]: 76.5% | viability, T/C [39]: 66.6% | viability, T/C [40]: 55.5% | viability, T/C [11]: 108% | viability, T/C [12]: 95.3% | viability, T/C [29]: 83.2% | viability, T/C [30]: 76.3% | viability, T/C [41]: 65.8% | viability, T/C [42]: 57.6% | viability, T/C [15]: 104% | viability, T/C [16]: 90% | viability, T/C [31]: 80.6% | viability, T/C [32]: 79.9% | viability, T/C [43]: 72.3% | viability, T/C [44]: 56.5% | viability, T/C [19]: 105% | viability, T/C [20]: 98.6% | viability, T/C [33]: 88.6% | viability, T/C [34]: 74% | viability, T/C [45]: 77% | viability, T/C [46]: 59.7% | viability, T/C [23]: 108% | viability, T/C [24]: 83.4% | viability, T/C [35]: 80.5% | viability, T/C [36]: 74.3% | viability, T/C [47]: 76.5% | viability, T/C [48]: 62.3%

O=C(c1cc(Cc2n[nH]c(=O)c3ccccc23)ccc1F)N1CCN(C(=O)C2CC2)CC1 + Cc1cccc(N(C)C(=O)C2C(O)CCN2c2nc(C)cc(C(F)(F)F)c2C#N)c1
IC50 (second compound 0.0316 µM): > 10000 nM | IC50 (second compound 0.1 µM): > 10000 nM | IC50 (second compound 0.316 µM): > 10000 nM | IC50 (second compound 1 µM): > 10000 nM | IC50 (second compound 3.16 µM): > 10000 nM | IC50 (second compound 10 µM): > 10000 nM | viability, T/C [3]: 101% | viability, T/C [4]: 82.3% | viability, T/C [25]: 98% | viability, T/C [26]: 88.1% | viability, T/C [37]: 98.5% | viability, T/C [38]: 92.6% | viability, T/C [7]: 107% | viability, T/C [8]: 92.8% | viability, T/C [27]: 107% | viability, T/C [28]: 95.9% | viability, T/C [39]: 100% | viability, T/C [40]: 101% | viability, T/C [11]: 97.8% | viability, T/C [12]: 94.9% | viability, T/C [29]: 101% | viability, T/C [30]: 96.1% | viability, T/C [41]: 106% | viability, T/C [42]: 93.2% | viability, T/C [15]: 96.1% | viability, T/C [16]: 106% | viability, T/C [31]: 104% | viability, T/C [32]: 96.9% | viability, T/C [43]: 111% | viability, T/C [44]: 106% | viability, T/C [19]: 102% | viability, T/C [20]: 111% | viability, T/C [33]: 107% | viability, T/C [34]: 91.3% | viability, T/C [45]: 103% | viability, T/C [46]: 111% | viability, T/C [23]: 99.9% | viability, T/C [24]: 98.5% | viability, T/C [35]: 103% | viability, T/C [36]: 93.7% | viability, T/C [47]: 116% | viability, T/C [48]: 109%
